# Test results: publication PMC4503722, “Novel Phenotypic Outcomes Identified for a Public Collection of Approved Drugs from a Publicly Accessible Panel of Assays” (PLoS ONE, 2015)
# Read-outs that look alike come from different tables or passages of the source.
# Tests used:
# [1] = test system: endothelial tube formation in co-cultures of ECFCs and ADSCs treated with VEGF; assay: cells; type: cell-based, human
# DLD-1 = assay: cells; type: cell-based
# SW480 = assay: cells; type: cell-based
# HCT116 = assay: cells; type: cell-based
# [2] = test system: HCT116 cells treated with a GSK3β inhibitor; assay: cells; type: cell-based; conditions: for IC50/EC50, GSK3b inh pretreated_Viability ATP HCT116 (assay number 26): GSK3b inh pretreated
# Colo320 = assay: cells; type: cell-based
# HT-29 = assay: cells; type: cell-based
# RKO = assay: cells; type: cell-based
# SNU-C1 = assay: cells; type: cell-based
# [3] = test system: ECFC/ADSC co-culture cell nuclei number
# [4] = assay number 26, GSK3b inhibitor pretreated
compound,measurement,setting,value
CCCCCCCC[N+](C)(C)CCCCCCCC [NCGC00182056-04],VEGF_ADSC\ECFC Angio CD31 TubeArea IC50/EC50,[1],1.3911 µM
same,Basal_Viability ATP DLD-1 IC50/EC50,"DLD-1; assay number 23, basal",3.2197 µM
same,Basal_Viability ATP SW480 IC50/EC50,"SW480; assay number 24, basal",3.4577 µM
same,Basal_Viability ATP HCT116 IC50/EC50,"HCT116; assay number 25, basal",6.2411 µM
same,GSK3b inh pretreated_Viability ATP HCT116 IC50/EC50,[2]; [4],3.6902 µM
same,Basal_Viability ATP Colo 320 IC50/EC50,"Colo320; assay number 27, basal",4.6621 µM
same,Basal_Viability ATP HT-29 IC50/EC50,"HT-29; assay number 28, basal",3.9986 µM
same,Basal_Viability ATP RKO IC50/EC50,"RKO; assay number 29, basal",2.183 µM
same,Basal_Viability ATP SNU-C1 IC50/EC50,"SNU-C1; assay number 30, basal",1.4417 µM
same,VEGF_ADSC\ECFC Angio Hoechst NucArea IC50/EC50,[3],7.431 µM
CN1CCN(C2Cc3ccccc3Sc3ccc(Cl)cc32)CC1.O=C(O)/C=C\C(=O)O (centres unmarked) [NCGC00015759-05],VEGF_ADSC\ECFC Angio CD31 TubeArea IC50/EC50,[1],5.2302 µM
same,Basal_Viability ATP DLD-1 IC50/EC50,"DLD-1; assay number 23, basal",> 20 µM
same,Basal_Viability ATP SW480 IC50/EC50,"SW480; assay number 24, basal",6.3146 µM
same,Basal_Viability ATP HCT116 IC50/EC50,"HCT116; assay number 25, basal",9.1662 µM
same,GSK3b inh pretreated_Viability ATP HCT116 IC50/EC50,[2]; [4],8.3951 µM
same,Basal_Viability ATP Colo 320 IC50/EC50,"Colo320; assay number 27, basal",> 6.6667 µM
same,Basal_Viability ATP HT-29 IC50/EC50,"HT-29; assay number 28, basal",8.001 µM
same,Basal_Viability ATP RKO IC50/EC50,"RKO; assay number 29, basal",> 20 µM
same,Basal_Viability ATP SNU-C1 IC50/EC50,"SNU-C1; assay number 30, basal",7.8734 µM
same,VEGF_ADSC\ECFC Angio Hoechst NucArea IC50/EC50,[3],> 10 µM
C[C@H](O)CN(C)C [NCGC00166221-02],"IC50/EC50, VEGF_ADSC\ECFC Angio CD31 TubeArea (assay number 2)",[1],> 10 µM
same,"IC50/EC50, Basal_Viability ATP DLD-1 (assay number 23)",DLD-1; basal,> 20 µM
same,"IC50/EC50, Basal_Viability ATP SW480 (assay number 24)",SW480; basal,> 20 µM
same,"IC50/EC50, Basal_Viability ATP HCT116 (assay number 25)",HCT116; basal,> 20 µM
same,"IC50/EC50, GSK3b inh pretreated_Viability ATP HCT116 (assay number 26)",[2],> 20 µM
same,"IC50/EC50, Basal_Viability ATP Colo 320 (assay number 27)",Colo320; basal,> 20 µM
same,"IC50/EC50, Basal_Viability ATP HT-29 (assay number 28)",HT-29; basal,> 20 µM
same,"IC50/EC50, Basal_Viability ATP RKO (assay number 29)",RKO; basal,> 20 µM
same,"IC50/EC50, Basal_Viability ATP SNU-C1 (assay number 30)",SNU-C1; basal,> 20 µM
same,"IC50/EC50, VEGF_ADSC\ECFC Angio Hoechst NucArea (assay number 3)",[3],> 10 µM
CSc1ccc(/C=C2/C(C)=C(CC(=O)O)c3cc(F)ccc32)cc1 [NCGC00161601-02],"IC50/EC50, VEGF_ADSC\ECFC Angio CD31 TubeArea (assay number 2)",[1],> 10 µM
same,"IC50/EC50, Basal_Viability ATP DLD-1 (assay number 23)",DLD-1; basal,> 20 µM
same,"IC50/EC50, Basal_Viability ATP SW480 (assay number 24)",SW480; basal,19.964 µM
same,"IC50/EC50, Basal_Viability ATP HCT116 (assay number 25)",HCT116; basal,> 20 µM
same,"IC50/EC50, GSK3b inh pretreated_Viability ATP HCT116 (assay number 26)",[2],> 20 µM
same,"IC50/EC50, Basal_Viability ATP Colo 320 (assay number 27)",Colo320; basal,> 20 µM
same,"IC50/EC50, Basal_Viability ATP HT-29 (assay number 28)",HT-29; basal,> 20 µM
same,"IC50/EC50, Basal_Viability ATP RKO (assay number 29)",RKO; basal,> 20 µM
same,"IC50/EC50, Basal_Viability ATP SNU-C1 (assay number 30)",SNU-C1; basal,11.9864 µM
same,"IC50/EC50, VEGF_ADSC\ECFC Angio Hoechst NucArea (assay number 3)",[3],> 10 µM
CO[C@H]1O[C@@H]2O[C@@]3(C)CC[C@H]4[C@H](C)CC[C@@H]([C@H]1C)[C@@]24OO3 [NCGC00164591-04],VEGF_ADSC\ECFC Angio CD31 TubeArea IC50/EC50,[1],> 10 µM
same,Basal_Viability ATP DLD-1 IC50/EC50,"DLD-1; assay number 23, basal",> 20 µM
same,Basal_Viability ATP SW480 IC50/EC50,"SW480; assay number 24, basal",> 20 µM
same,Basal_Viability ATP HCT116 IC50/EC50,"HCT116; assay number 25, basal",> 20 µM
same,GSK3b inh pretreated_Viability ATP HCT116 IC50/EC50,[2]; [4],> 20 µM
same,Basal_Viability ATP Colo 320 IC50/EC50,"Colo320; assay number 27, basal",> 20 µM
same,Basal_Viability ATP HT-29 IC50/EC50,"HT-29; assay number 28, basal",> 20 µM
same,Basal_Viability ATP RKO IC50/EC50,"RKO; assay number 29, basal",> 20 µM
same,Basal_Viability ATP SNU-C1 IC50/EC50,"SNU-C1; assay number 30, basal",> 20 µM
same,VEGF_ADSC\ECFC Angio Hoechst NucArea IC50/EC50,[3],> 10 µM
Oc1c(Br)cc(Br)c2cccnc12 [NCGC00094815-05],IC50,[1]; read-out: VEGF_ADSC\ECFC Angio CD31 TubeArea summarized IC50,> 10 µM
same,IC50,DLD-1; read-out: Basal_Viability ATP DLD-1 summarized IC50,157 nM
same,IC50,SW480; read-out: Basal_Viability ATP SW480 summarized IC50,132 nM
same,IC50,HCT116; read-out: Basal_Viability ATP HCT116 summarized IC50,193 nM
same,IC50,[2]; read-out: GSK3b inh pretreated_Viability ATP HCT116 summarized IC50,183 nM
same,IC50,Colo320; read-out: Basal_Viability ATP Colo 320 summarized IC50,114 nM
same,IC50,HT-29; read-out: Basal_Viability ATP HT-29 summarized IC50,5.25 µM
same,IC50,RKO; read-out: Basal_Viability ATP RKO summarized IC50,163 nM
same,IC50,SNU-C1; read-out: Basal_Viability ATP SNU-C1 summarized IC50,366 nM
same,IC50,[3]; read-out: VEGF_ADSC\ECFC Angio Hoechst NucArea summarized IC50,> 10 µM
COC(=O)C1=C(C)NC(C)=C(C(=O)O[C@@H]2CCCN(Cc3ccccc3)C2)[C@@H]1c1cccc([N+](=O)[O-])c1.Cl [NCGC00185768-01],VEGF_ADSC\ECFC Angio CD31 TubeArea IC50/EC50,[1],> 10 µM
same,Basal_Viability ATP DLD-1 IC50/EC50,DLD-1; assay number 23,7.9596 µM
same,Basal_Viability ATP SW480 IC50/EC50,SW480; assay number 24,> 20 µM
same,Basal_Viability ATP HCT116 IC50/EC50,"HCT116; assay number 25, basal",4.2797 µM
same,GSK3b inh pretreated_Viability ATP HCT116 IC50/EC50,[2]; [4],5.3147 µM
same,Basal_Viability ATP Colo 320 IC50/EC50,Colo320; assay number 27,19.5148 µM
same,Basal_Viability ATP HT-29 IC50/EC50,HT-29; assay number 28,5.2728 µM
same,Basal_Viability ATP RKO IC50/EC50,RKO; assay number 29,8.0546 µM
same,Basal_Viability ATP SNU-C1 IC50/EC50,SNU-C1; assay number 30,5.7601 µM
same,VEGF_ADSC\ECFC Angio Hoechst NucArea IC50/EC50,[3],> 10 µM
Cc1cc2nc3ccc(=[N+](C)C)cc-3sc2cc1N.[Cl-] [NCGC00181775-02],VEGF_ADSC\ECFC Angio CD31 TubeArea IC50/EC50,[1],2.45 µM
same,Basal_Viability ATP DLD-1 IC50/EC50,DLD-1,9.38 µM
same,Basal_Viability ATP SW480 IC50/EC50,SW480,1.397 µM
same,Basal_Viability ATP HCT116 IC50/EC50,HCT116,2.782 µM
same,GSK3b inh pretreated_Viability ATP HCT116 IC50/EC50,[2],1.693 µM
same,Basal_Viability ATP Colo 320 IC50/EC50,Colo320,0.9874 µM
same,Basal_Viability ATP HT-29 IC50/EC50,HT-29,5.063 µM
same,Basal_Viability ATP RKO IC50/EC50,RKO,0.9955 µM
same,Basal_Viability ATP SNU-C1 IC50/EC50,SNU-C1,5.5567 µM
same,VEGF_ADSC\ECFC Angio Hoechst NucArea IC50/EC50,[3],8.146 µM
